In patent US20240082296A1, “TREATMENT OF MUSCLE ATROPHY USING DEXTRAN SULFATE” (TX MEDIC AB, priority 2020, published 2024):
Marks after values point to notes of the source that are not given here.

Tested on: severe traumatic brain injury (sTBI) in rats
Assay: HPLC of purine-pyrimidine / energy metabolites in rat brain after sTBI (Example 4)
Assay type: in vivo
Experimental: The effects of daily sub-cutaneous injections of dextran sulfate on glutamate excitotoxicity and mitochondrial function after severe traumatic brain injury (sTBI) in rats were evaluated by high-performance liquid chromatography (HPLC) analysis of frozen brain samples.
The experimental protocol used in this study was approved by the Ethical Committee of the Catholic University of Rome, according to international standards and guidelines for animal care. Male Wistar rats of 300-350 g body weight (b.w.) were fed with standard laboratory diet and water ad libitum in a controlled environment.
They were divided into three groups: • 1) n=6 animals subjected to sTBI, with drug administration after 30 minutes and sacrifice at 2 days post-TBI (Acute phase 1) • 2) n=6 animals subjected to severe-TBI, with drug administration after 30 minutes and sacrifice at 7 days post-TBI (Acute phase 2). • 3) n=6 animals subjected to severe-TBI, with drug administration after 3 days and sacrifice at 7 days post-TBI (Chronic phase).
As the anesthetic mixture, animals received 35 mg/kg b.w. ketamine and 0.25 mg/kg b.w. midazolam by i.p. injection. sTBI was induced by dropping a 450 g weight from 2 m height on to the rat head that had been protected by a metal disk previously fixed on the skull, according to the “weight drop” impact acceleration model (Marmarou et al., A new model of diffuse brain injury in rats. Part I: Pathophysiology and biomechanics. J Neurosurg. 1994; 80: 291-300). […] At the end of each period of treatment, rats were anesthetized again and then immediately sacrificed.
The drug treatment was a subcutaneous injection of 0.5 ml of dextran sulfate (Tikomed AB, Viken, Sweden, WO 2016/076780; 15 mg/kg) and administered according to the aforementioned schematic protocol.
An in vivo craniectomy was performed in all animals during anesthesia, after carefully removing the rat's skull, the brain was exposed and removed with a surgical spatula and quickly dropped in liquid nitrogen. After the wet weight (w.w.) determination, tissue preparation was affected as previously disclosed (Tavazzi et al., Cerebral oxidative stress and depression of energy metabolism correlate with severity of diffuse brain injury in rats. Neurosurgery. 2005; 56: 582-589; Vagnozzi et al., Temporal window of metabolic brain vulnerability to concussions: mitochondrial-related impairment-part I. Neurosurgery. 2007; 61: 379-388; Tavazzi et al., Temporal window of metabolic brain vulnerability to concussions: oxidative and nitrosative stresses-part II. Neurosurgery. 2007; 61: 390-395; Amorini et al., Severity of experimental traumatic brain injury modulates changes in concentrations of cerebral free amino acids. J Cell Mol Med. 2017; 21: 530-542.). Briefly, whole brain homogenization was performed with 7 ml of ice-cold, nitrogen-saturated, precipitating solution composed by CH3CN+10 mM KH2PO4, pH 7.40, (3:1; v:v), and using an Ultra-Turrax set at 24,000 rpm/min (Janke & Kunkel, Staufen, Germany). After centrifugation at 20,690×g, for 10 min at 4° C., the clear supernatants were saved, pellets were supplemented with 3 ml of the precipitating solution and homogenized again as described above. A second centrifugation was performed (20,690×g, for 10 min at 4° C.), pellets were saved, supernatants combined with those previously obtained, extracted by vigorous agitation with a double volume of HPLC-grade CHCl3 and centrifuged as above. The upper aqueous phases containing water-soluble low-molecular weight compounds were collected, subjected to chloroform washings for two more times (this procedure allowed the removal of all the organic solvent and of any lipid soluble compound from the buffered tissue extracts), adjusted in volumes with 10 mM KH2PO4, pH 7.40, to have ultimately aqueous 10% tissue homogenates and saved at −80° C. until assayed. […]

[1] = Acute phase 2 (15 mg/kg s.c. 30 min after sTBI, sacrifice 7 days post-TBI)
[2] = Chronic phase (15 mg/kg s.c. 3 days after sTBI, sacrifice 7 days post-TBI)
[3] = rat brain after sTBI, after administration

With dextran sulfate as the substance, how does the UDP-GalNac concentration [1] read?
The UDP-GalNac concentration was 19.90 ± 3.12^a,e nmol/g (w.w.).

And the UDP-Glc concentration [1]?
Its UDP-Glc concentration is 44.44 ± 7.59^j nmol/g (w.w.).

What about the UDP-GlcNac concentration [1] of the same substance?
The UDP-GlcNac concentration was 130.65 ± 28.41^a nmol/g (w.w.).

What about the UMP concentration [1] of the same substance?
The UMP concentration was 138.73 ± 32.01^b nmol/g (w.w.).

And the UTP concentration [1]?
The UTP concentration was 146.71 ± 32.68^e nmol/g (w.w.).

What about the acetyl-CoA concentration [1] of the same substance?
The acetyl-CoA concentration was 36.86 ± 4.11^e nmol/g (w.w.).

And the adenine concentration [1]?
The adenine concentration was 58.16 ± 6.36^a,f nmol/g (w.w.).

And the ascorbic acid concentration [1]?
The ascorbic acid concentration was 3512.58 ± 224.62^a,e nmol/g (w.w.).

And the creatinine concentration [1]?
Its creatinine concentration is 37.27 ± 5.82^a,e,j nmol/g (w.w.).

And the cytidine concentration [1]?
The cytidine concentration was 16.18 ± 4.21^e nmol/g (w.w.).

And the cytosine concentration [1]?
Its cytosine concentration is 15.70 ± 4.10^f nmol/g (w.w.).

What about the guanine concentration [1] of the same substance?
The guanine concentration was 4.73 ± 1.07 nmol/g (w.w.).

And the guanosine concentration [1]?
Its guanosine concentration is 17.90 ± 3.24^j nmol/g (w.w.).

And the hypoxanthine concentration [1]?
The hypoxanthine concentration was 12.90 ± 2.58^a,j nmol/g (w.w.).

And the inosine concentration [1]?
The inosine concentration was 85.52 ± 20.36^e nmol/g (w.w.).

What about the malonyl-CoA concentration [1] of the same substance?
The malonyl-CoA concentration was 11.29 ± 2.27^b nmol/g (w.w.).

What about the orotic acid concentration [1] of the same substance?
Its orotic acid concentration is 13.34 ± 3.65^a nmol/g (w.w.).

What about the thymidine concentration [1] of the same substance?
The thymidine concentration was 0.49 ± 0.20^f nmol/g (w.w.).

What about the uracil concentration [1] of the same substance?
The uracil concentration was 19.40 ± 7.52^a,e nmol/g (w.w.).

What about the uric acid concentration [1] of the same substance?
The uric acid concentration was 19.17 ± 2.15^a,h,i nmol/g (w.w.).

What about the uridine concentration [1] of the same substance?
Its uridine concentration is 63.02 ± 9.66^b,e nmol/g (w.w.).

What about the xanthine concentration [1] of the same substance?
Its xanthine concentration is 10.41 ± 2.11^f nmol/g (w.w.).

What about the β-pseudouridine concentration [1] of the same substance?
Its β-pseudouridine concentration is 13.26 ± 3.16^a,e,j nmol/g (w.w.).

What about the ADO concentration [2] of the same substance?
The ADO concentration was 89.97 ± 12.98^a nmol/g (w.w.).

What about the ADP concentration [2] of the same substance?
The ADP concentration was 315.53 ± 46.53^a nmol/g (w.w.).

What about the ADP-ribose concentration [2] of the same substance?
The ADP-ribose concentration was 173.94 ± 8.45^a nmol/g (w.w.).

And the AMP concentration [2]?
The AMP concentration was 90.01 ± 21.24^a nmol/g (w.w.).

And the ATP concentration [2]?
Its ATP concentration is 1381.03 ± 212.64^a nmol/g (w.w.).

And the CDP choline concentration [2]?
Its CDP choline concentration is 8.37 ± 2.19 nmol/g (w.w.).

And the CDP concentration [2]?
The CDP concentration was 23.55 ± 6.45^a nmol/g (w.w.).

What about the CMP concentration [2] of the same substance?
The CMP concentration was 20.51 ± 3.73^a,f nmol/g (w.w.).

And the CTP concentration [2]?
The CTP concentration was 25.23 ± 2.93^a,f nmol/g (w.w.).

And the CoA-SH concentration [2]?
The CoA-SH concentration was 27.58 ± 6.24^f nmol/g (w.w.).

What about the GDP concentration [2] of the same substance?
Its GDP concentration is 173.05 ± 28.68^a,e nmol/g (w.w.).

And the GDP glucose concentration [2]?
The GDP glucose concentration was 43.85 ± 5.06^b nmol/g (w.w.).

And the GMP concentration [2]?
Its GMP concentration is 148.56 ± 31.21^a nmol/g (w.w.).

What about the GSH concentration [2] of the same substance?
Its GSH concentration is 2608.67 ± 358.07^a,e nmol/g (w.w.).

And the GSSG concentration [2]?
Its GSSG concentration is 231.08 ± 44.34^b,f nmol/g (w.w.).

What about the GTP concentration [2] of the same substance?
Its GTP concentration is 290.92 ± 34.68^a,f nmol/g (w.w.).

And the IMP concentration [2]?
The IMP concentration was 99.29 ± 13.82^a nmol/g (w.w.).

And the MDA concentration [2]?
Its MDA concentration is 11.62 ± 3.90^a,e nmol/g (w.w.).

And the NAA concentration [2]?
The NAA concentration was 6375.36 ± 974.12^a,e nmol/g (w.w.).

What about the NADH concentration [2] of the same substance?
The NADH concentration was 11.78 ± 3.32^e nmol/g (w.w.).

What about the NADPH concentration [2] of the same substance?
Its NADPH concentration is 7.34 ± 2.65^f nmol/g (w.w.).

What about the “NADP^+ concentration” value [2] of the same substance?
The value was 16.44 ± 2.66^a,f nmol/g (w.w.).

And the “NAD^+ concentration” value [2]?
Its value is 301.13 ± 29.90^a nmol/g (w.w.).

And the NO2 concentration [2]?
The NO2 concentration was 217.67 ± 55.04^a nmol/g (w.w.).

And the NO3 concentration [2]?
The NO3 concentration was 241.27 ± 18.84^e nmol/g (w.w.).

And the UDP concentration [2]?
Its UDP concentration is 57.40 ± 5.88^a,f nmol/g (w.w.).

And the UDP-Gal concentration [2]?
Its UDP-Gal concentration is 122.29 ± 12.15 nmol/g (w.w.).

And the UDP-GalNac concentration [2]?
Its UDP-GalNac concentration is 21.84 ± 2.80^a,e nmol/g (w.w.).

And the UDP-Glc concentration [2]?
Its UDP-Glc concentration is 35.79 ± 3.45^b nmol/g (w.w.).

What about the UDP-GlcNac concentration [2] of the same substance?
Its UDP-GlcNac concentration is 129.42 ± 15.88^b nmol/g (w.w.).

And the UMP concentration [2]?
The UMP concentration was 103.11 ± 29.79 nmol/g (w.w.).

What about the UTP concentration [2] of the same substance?
Its UTP concentration is 136.80 ± 33.25^f nmol/g (w.w.).

And the acetyl-CoA concentration [2]?
Its acetyl-CoA concentration is 35.68 ± 6.55^e nmol/g (w.w.).

And the adenine concentration [2]?
The adenine concentration was 52.94 ± 8.59^a,f nmol/g (w.w.).

And the ascorbic acid concentration [2]?
The ascorbic acid concentration was 3375.03 ± 856.41^a,e nmol/g (w.w.).

And the creatinine concentration [2]?
The creatinine concentration was 51.25 ± 10.17^a,f nmol/g (w.w.).

What about the cytidine concentration [2] of the same substance?
The cytidine concentration was 14.71 ± 2.83^e nmol/g (w.w.).

And the cytosine concentration [2]?
Its cytosine concentration is 15.58 ± 2.50^b,f nmol/g (w.w.).

And the guanine concentration [2]?
The guanine concentration was 5.31 ± 1.04^b nmol/g (w.w.).

What about the guanosine concentration [2] of the same substance?
Its guanosine concentration is 28.87 ± 7.60^a,f nmol/g (w.w.).

What about the hypoxanthine concentration [2] of the same substance?
The hypoxanthine concentration was 17.97 ± 4.49^a nmol/g (w.w.).

And the inosine concentration [2]?
The inosine concentration was 105.81 ± 25.57^f nmol/g (w.w.).

What about the malonyl-CoA concentration [2] of the same substance?
The malonyl-CoA concentration was 10.00 ± 1.95^b nmol/g (w.w.).

And the orotic acid concentration [2]?
Its orotic acid concentration is 12.05 ± 1.50^a nmol/g (w.w.).

What about the thymidine concentration [2] of the same substance?
The thymidine concentration was 0.71 ± 0.11 nmol/g (w.w.).

And the uracil concentration [2]?
Its uracil concentration is 16.57 ± 2.99^a,f nmol/g (w.w.).

What about the uric acid concentration [2] of the same substance?
The uric acid concentration was 27.77 ± 3.60^a nmol/g (w.w.).

What about the uridine concentration [2] of the same substance?
Its uridine concentration is 63.28 ± 3.37^f nmol/g (w.w.).

What about the xanthine concentration [2] of the same substance?
The xanthine concentration was 9.35 ± 0.83^f nmol/g (w.w.).

And the β-pseudouridine concentration [2]?
The β-pseudouridine concentration was 18.62 ± 2.80^a nmol/g (w.w.).

What about the cerebral nitrate concentrations (both the acute and chronic phases of sTBI) of the same substance?
Its cerebral nitrate concentrations is “significantly decreased”.

And the “cerebral GSH level” value [3]?
The value was “significant improvement”.

What about the “cerebral MDA levels” value [3] of the same substance?
The value was “significant reduction”.

And the “cerebral NAA and its substrates” value [3]?
The value was “significant improvements”.

And the “cerebral ascorbic acid level” value [3]?
The value was “significant improvement”.
